Experimental data: the NIST ThermoML archive (doi:10.1016/j.fluid.2010.03.017)

Legend:
[1] = cn = amount concentration of the nth substance listed, in mol/dm3; conditions: 101 kPa, Liquid
[2] = specific heat capacity at constant pressure; cn = amount concentration of the nth substance listed, in mol/dm3; conditions: 101 kPa, Liquid, heat flux microcalorimetry

CC#N [acetonitrile] + [Cl-].c1ccc([P+](c2ccccc2)(c2ccccc2)c2ccccc2)cc1
c2 = 0
Conditions	mass density, 308.65 K [kg/m3]	mass density, 311.65 K [kg/m3]	mass density, 314.65 K [kg/m3]	specific heat capacity, 308.65 K [J/K/kg]	specific heat capacity, 311.65 K [J/K/kg]	specific heat capacity, 314.65 K [J/K/kg]
[1]	765.82	762.77	759.726	–	–	–
[2]	–	–	–	2274.3	2280.4	2286.5

[Cl-].c1ccc([P+](c2ccccc2)(c2ccccc2)c2ccccc2)cc1 [tetraphenylphosphonium chloride] + O
Conditions	mass density, c1 = 0.005 [kg/m3]	mass density, c1 = 0.01 [kg/m3]	mass density, c1 = 0.02 [kg/m3]	mass density, c1 = 0.05 [kg/m3]	mass density, c1 = 0.1 [kg/m3]	specific heat capacity, c1 = 0.005 [J/K/kg]	specific heat capacity, c1 = 0.01 [J/K/kg]	specific heat capacity, c1 = 0.02 [J/K/kg]	specific heat capacity, c1 = 0.05 [J/K/kg]	specific heat capacity, c1 = 0.1 [J/K/kg]
[1], 308.65 K	994.05	995.67	998.12	996.84	1001.06	–	–	–	–	–
[1], 311.65 K	993.46	994.88	996.99	995.58	997.28	–	–	–	–	–
[1], 314.65 K	991.77	992.33	995.43	994.11	995.93	–	–	–	–	–
[2], 308.65 K	–	–	–	–	–	4202.5	4203.6	4207	4217.3	4229.9
[2], 311.65 K	–	–	–	–	–	4203.6	4206.5	4209.8	4218.4	4241.9
[2], 314.65 K	–	–	–	–	–	4203.8	4208.4	4211.1	4219.7	4244.7

CO [methanol] + [Cl-].c1ccc([P+](c2ccccc2)(c2ccccc2)c2ccccc2)cc1
c2 = 0
Conditions	mass density, 308.65 K [kg/m3]	mass density, 311.65 K [kg/m3]	mass density, 314.65 K [kg/m3]	specific heat capacity, 308.65 K [J/K/kg]	specific heat capacity, 311.65 K [J/K/kg]	specific heat capacity, 314.65 K [J/K/kg]
[1]	776.519	773.896	771.1	–	–	–
[2]	–	–	–	2554.5	2577	2621

[Cl-].c1ccc([P+](c2ccccc2)(c2ccccc2)c2ccccc2)cc1 [tetraphenylphosphonium chloride] + CC#N
Conditions	mass density, c1 = 0.005 [kg/m3]	mass density, c1 = 0.01 [kg/m3]	mass density, c1 = 0.02 [kg/m3]	mass density, c1 = 0.05 [kg/m3]	mass density, c1 = 0.1 [kg/m3]	specific heat capacity, c1 = 0.005 [J/K/kg]	specific heat capacity, c1 = 0.01 [J/K/kg]	specific heat capacity, c1 = 0.02 [J/K/kg]	specific heat capacity, c1 = 0.05 [J/K/kg]	specific heat capacity, c1 = 0.1 [J/K/kg]
[1], 308.65 K	767.478	768.43	772.35	776.18	784.14	–	–	–	–	–
[1], 311.65 K	764.4	765.22	769.19	773.42	780.77	–	–	–	–	–
[1], 314.65 K	762.76	762.76	766.82	770.87	777.19	–	–	–	–	–
[2], 308.65 K	–	–	–	–	–	2269.4	2269.1	2258.9	2255.3	2238.7
[2], 311.65 K	–	–	–	–	–	2275.5	2277	2267.8	2265.6	2250.6
[2], 314.65 K	–	–	–	–	–	2281.3	2282.6	2274.3	2267.5	2257.9

O [water] + [Cl-].c1ccc([P+](c2ccccc2)(c2ccccc2)c2ccccc2)cc1
c2 = 0
Conditions	mass density, 311.65 K [kg/m3]	mass density, 314.65 K [kg/m3]	specific heat capacity, 308.65 K [J/K/kg]	specific heat capacity, 311.65 K [J/K/kg]	specific heat capacity, 314.65 K [J/K/kg]
[1]	993.13	991.68	–	–	–
[2]	–	–	4182	4182.2	4182.4

CCO [ethanol] + [Cl-].c1ccc([P+](c2ccccc2)(c2ccccc2)c2ccccc2)cc1
c2 = 0
Conditions	mass density, 308.65 K [kg/m3]	mass density, 311.65 K [kg/m3]	mass density, 314.65 K [kg/m3]	specific heat capacity, 308.65 K [J/K/kg]	specific heat capacity, 311.65 K [J/K/kg]	specific heat capacity, 314.65 K [J/K/kg]
[1]	775.93	773.4	770.84	–	–	–
[2]	–	–	–	2592.8	2653.8	2694.1

[Cl-].c1ccc([P+](c2ccccc2)(c2ccccc2)c2ccccc2)cc1 [tetraphenylphosphonium chloride] + CCO
Conditions	mass density, c1 = 0.005 [kg/m3]	mass density, c1 = 0.01 [kg/m3]	mass density, c1 = 0.02 [kg/m3]	mass density, c1 = 0.05 [kg/m3]	mass density, c1 = 0.1 [kg/m3]	specific heat capacity, c1 = 0.005 [J/K/kg]	specific heat capacity, c1 = 0.01 [J/K/kg]	specific heat capacity, c1 = 0.02 [J/K/kg]	specific heat capacity, c1 = 0.05 [J/K/kg]	specific heat capacity, c1 = 0.1 [J/K/kg]
[1], 308.65 K	777.31	778.02	778.83	784.24	791.62	–	–	–	–	–
[1], 311.65 K	775.32	775.16	776.11	781.91	789.98	–	–	–	–	–
[1], 314.65 K	772.48	772.21	773.38	779.58	787.77	–	–	–	–	–
[2], 308.65 K	–	–	–	–	–	2520.9	2545.7	2549.3	2555.5	2570
[2], 311.65 K	–	–	–	–	–	2581.5	2600.7	2606.3	2607.1	2623
[2], 314.65 K	–	–	–	–	–	2627.1	2638.3	2650.8	2650	2633.7

[Cl-].c1ccc([P+](c2ccccc2)(c2ccccc2)c2ccccc2)cc1 [tetraphenylphosphonium chloride] + CO
Conditions	mass density, c1 = 0.005 [kg/m3]	mass density, c1 = 0.01 [kg/m3]	mass density, c1 = 0.02 [kg/m3]	mass density, c1 = 0.05 [kg/m3]	mass density, c1 = 0.1 [kg/m3]	specific heat capacity, c1 = 0.005 [J/K/kg]	specific heat capacity, c1 = 0.01 [J/K/kg]	specific heat capacity, c1 = 0.02 [J/K/kg]	specific heat capacity, c1 = 0.05 [J/K/kg]	specific heat capacity, c1 = 0.1 [J/K/kg]
[1], 308.65 K	776.52	779.51	780.37	787.22	793.29	–	–	–	–	–
[1], 311.65 K	774.51	778.81	777.85	784.14	790.42	–	–	–	–	–
[1], 314.65 K	771.62	775.7	774.95	782.06	788.49	–	–	–	–	–
[2], 308.65 K	–	–	–	–	–	2543.2	2548.5	2556.9	2605.5	2660.8
[2], 311.65 K	–	–	–	–	–	2564.1	2565.8	2582.9	2628.9	2691.7
[2], 314.65 K	–	–	–	–	–	2570.9	2605.9	2599.5	2637.3	2721.3
